These results are taken from ChEMBL document CHEMBL1150065, “Isolation of picropolygamain from the resin of Bursera simaruba” (J Nat Prod, 1992).

Experiment [1] has as its system HT-29. Briefly: Cytotoxicity against human HT-29 cells. It counts as functional.
Experiment [2] has as its system A549. Briefly: Cytotoxicity against human A549 cells. It counts as functional.
Experiment [3] concerns MCF7. Briefly: Cytotoxicity against human MCF7 cells. In kind it is functional.
In experiment [4] the test system is Artemia. Briefly: Toxicity in brine shrimp. It counts as organism-based.

Regarding `COc1cccc2c1C(=O)c1c(O)c3c(c(O)c1C2=O)C[C@@](O)(C(=O)CO)C[C@@H]3O[C@H]1C[C@H](N)[C@H](O)[C@H](C)O1` [DOXORUBICIN], the ED50 amounted to 1.12 ×10⁻⁴ ug/ml in experiment [1], 4.09 ×10⁻⁴ ug/ml in experiment [2] and 1.05 ×10⁻⁴ ug/ml in experiment [3].
In the case of `O=C1OC[C@@H]2Cc3cc4c(cc3[C@@H](c3ccc5c(c3)OCO5)[C@H]12)OCO4` [PICROPOLYGAMAIN], the EC50 in experiment [1] (Homo sapiens, HT-29, read-out: ED50 (the source's name)) was < 0.01 µg/mL; in experiment [2] (Homo sapiens, A549, read-out: ED50 (the source's name)) it was < 0.01 µg/mL; in experiment [3] (Homo sapiens, MCF7, read-out: ED50 (the source's name)) it was < 0.01 µg/mL. The compound also registered an IC50 in experiment [4] of 52.2 ppm.
